Source: patent US8026243B2, “[4,5′]Bipyrimidinyl-6,4′-diamine derivatives as protein kinase inhibitors” (Novartis AG, priority 2006, dated 2011)

biological target: T1, Ba/F3-TEL-FGFR3 cells (Homo sapiens, UniProt P22607); test: FGFR3 cellular assay: proliferation of transformed Ba/F3-TEL-FGFR3 cells (AlamarBlue); assay type: cell-based; conditions: 48 hours incubation, class symbols
T1 construct: fused on or other part: The N-terminal oligomerising part of TEL (ETV6) is fused before the intracellular kinase part of FGFR3; P41212 (Transcription factor ETV6)
T1 sequence (P22607 whole entry, change not shown, the tested form may be a part): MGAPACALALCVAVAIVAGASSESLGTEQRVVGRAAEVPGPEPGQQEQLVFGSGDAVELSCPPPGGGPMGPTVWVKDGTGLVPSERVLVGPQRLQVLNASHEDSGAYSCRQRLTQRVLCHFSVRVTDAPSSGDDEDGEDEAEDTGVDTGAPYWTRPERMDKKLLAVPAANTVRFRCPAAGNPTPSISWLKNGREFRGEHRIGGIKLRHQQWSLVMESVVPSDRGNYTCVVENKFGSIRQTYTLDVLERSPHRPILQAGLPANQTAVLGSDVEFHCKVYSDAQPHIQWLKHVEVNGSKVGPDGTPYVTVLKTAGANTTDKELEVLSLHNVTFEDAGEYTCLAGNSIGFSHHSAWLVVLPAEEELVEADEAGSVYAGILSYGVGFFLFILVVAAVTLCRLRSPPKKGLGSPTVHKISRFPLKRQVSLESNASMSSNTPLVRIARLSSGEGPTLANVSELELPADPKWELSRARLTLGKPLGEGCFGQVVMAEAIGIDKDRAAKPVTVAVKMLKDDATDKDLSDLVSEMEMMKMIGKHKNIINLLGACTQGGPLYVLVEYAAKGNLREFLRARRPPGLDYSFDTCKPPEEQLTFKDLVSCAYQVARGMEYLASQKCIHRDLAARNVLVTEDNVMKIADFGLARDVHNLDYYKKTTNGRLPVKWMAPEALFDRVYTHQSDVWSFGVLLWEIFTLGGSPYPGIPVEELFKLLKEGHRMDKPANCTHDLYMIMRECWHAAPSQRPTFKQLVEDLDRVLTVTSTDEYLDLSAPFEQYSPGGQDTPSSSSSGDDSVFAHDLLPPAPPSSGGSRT
Procedure: Compounds of the invention are tested for their ability to inhibit transformed Ba/F3-TEL-FGFR3 cells proliferation, which is dependent on FGFR3 cellular kinase activity. Ba/F3-TEL-FGFR3 are cultured up to 800,000 cells/mL in suspension, with RPMI 1640 supplemented with 10% fetal bovine serum as the culture medium. Cells are dispensed into 384-well format plate at 5000 cell/well in […], culture medium. Compounds of the invention are dissolved and diluted in dimethylsulfoxide (DMSO). Twelve points 1:3 serial dilutions are made into DMSO to create concentrations gradient ranging typically from 10 mM to 0.05 μM. Cells are added with 50 nL of diluted compounds and incubated for 48 hours in cell culture incubator. AlamarBlue® (TREK Diagnostic Systems), which can be used to monitor the reducing environment created by proliferating cells, are added to cells at final concentration of 10%. After additional four hours of incubation in a 37° C. cell culture incubator, fluorescence signals from reduced AlamarBlue® (Excitation at 530 nm, Emission at 580 nm) are quantified on Analyst GT (Molecular Devices Corp.). IC50 values are calculated by linear regression analysis of the percentage inhibition of each compound at 12 concentrations.

Compound | GI50 [nM]
CCNC(=O)c1cc(OC)c(Cl)c(Nc2ncncc2-c2cc(Nc3cc(CN4CCN(C)CC4)ccn3)ncn2)c1Cl [Compound 30, 2,4-Dichloro-N-ethyl-5-methoxy-3-{6-[4-(4-methyl-piperazin-1-ylmethyl)-pyridin-2-ylamino]-[4,5′]bipyrimidinyl-4′-ylamino}-benzamide] | < 100
CCNC(=O)c1cc(OC)c(Cl)c(Nc2ncncc2-c2cc(Nc3ccc(CN(C)C)cn3)ncn2)c1Cl [Compound 31, 2,4-Dichloro-3-[6-(5-dimethylaminomethyl-pyridin-2-ylamino)-[4,5′]bipyrimidinyl-4′-ylamino]-N-ethyl-5-methoxy-benzamide] | < 100
CCNC(=O)c1cc(OC)c(Cl)c(Nc2ncncc2-c2cc(Nc3ccc(CCN4CCOCC4)cn3)ncn2)c1Cl [Compound 32, 2,4-Dichloro-N-ethyl-5-methoxy-3-{6-[5-(2-morpholin-4-yl-ethyl)-pyridin-2-ylamino]-[4,5′]bipyrimidinyl-4′-yl-amino}-benzamide] | 100 to 250
CCNC(=O)c1cc(OC)c(Cl)c(Nc2ncncc2-c2cc(Nc3cc(CN4CCOCC4)ccn3)ncn2)c1Cl [Compound 33, 2,4-Dichloro-N-ethyl-5-methoxy-3-[6-(4-morpholin-4-ylmethyl-pyridin-2-ylamino)-[4,5′]bipyrimidinyl-4′-ylamino]-benzamide] | < 100
CCNC(=O)c1cc(OC)c(Cl)c(Nc2ncncc2-c2cc(Nc3ccc(CN4CCN(C)CC4)cn3)ncn2)c1Cl [Compound 34, 2,4-Dichloro-N-ethyl-5-methoxy-3-{6-[5-(4-methyl-piperazin-1-ylmethyl)-pyridin-2-ylamino]-[4,5′]bipyrimidinyl-4′-ylamino}-benzamide] | 250 to 500
CCNC(=O)c1cc(OC)c(Cl)c(Nc2ncncc2-c2cc(Nc3ccc(CN4CCCC4)cn3)ncn2)c1Cl [Compound 35, 2,4-Dichloro-N-ethyl-5-methoxy-3-[6-(5-pyrrolidin-1-ylmethyl-pyridin-2-ylamino)-[4,5′]bipyrimidinyl-4′-ylamino]-benzamide] | < 100
CCNC(=O)c1cc(OC)c(Cl)c(Nc2ncncc2-c2cc(Nc3ccc(N4CCN(CC)CC4)cc3)ncn2)c1Cl [Compound 36, 2,4-Dichloro-N-ethyl-3-{6-[4-(4-ethyl-piperazin-1-yl)-phenylamino]-[4,5′]bipyrimidinyl-4′-ylamino}-5-methoxy-benzamide] | < 100
COc1cc(Nc2ncncc2-c2cc(Nc3ccc(CN4CCOCC4)cn3)ncn2)c(Cl)c(OC)c1 [Compound 37, N4′-(2-Chloro-3,5-dimethoxy-phenyl)-N6-(5-morpholin-4-ylmethyl-pyridin-2-yl)-[4,5′]bipyrimidinyl-6,4′-diamine] | 100 to 250
CCN1CCN(Cc2ccc(Nc3cc(-c4cncnc4Nc4cc(OC)cc(OC)c4Cl)ncn3)nc2)CC1 [Compound 38, N4′-(2-Chloro-3,5-dimethoxy-phenyl)-N6-[5-(4-ethyl-piperazin-1-ylmethyl)-pyridin-2-yl]-[4,5′]bipyrimidinyl-6,4′-diamine] | 100 to 250
COc1cc(Nc2ncncc2-c2cc(Nc3cc(CN4CCN(C)CC4)ccn3)ncn2)c(Cl)c(OC)c1 [Compound 39, N4′-(2-Chloro-3,5-dimethoxy-phenyl)-N6-[4-(4-methyl-piperazin-1-ylmethyl)-pyridin-2-yl]-[4,5′]bipyrimidinyl-6,4′-diamine] | 100 to 250
CCN1CCN(c2ccc(Nc3cc(-c4cncnc4Nc4c(Cl)c(OC)cc(OC)c4Cl)ncn3)nc2)CC1 [Compound 40, N4′-(2,6-Dichloro-3,5-dimethoxy-phenyl)-N6-[5-(4-ethyl-piperazin-1-yl)-pyridin-2-yl]-[4,5′]bipyrimidinyl-6,4′-diamine] | < 100
CCN1CCN(c2ccc(Nc3cc(-c4cncnc4Nc4c(Cl)c(OC)cc(C(=O)OC)c4Cl)ncn3)nc2)CC1 [Compound 41, 2,4-Dichloro-3-{6-[5-(4-ethyl-piperazin-1-yl)-pyridin-2-ylamino]-[4,5′]bipyrimidinyl-4′-ylamino}-5-methoxy-benzoic acid methyl ester] | < 100
CCNC(=O)c1cc(OC)c(Cl)c(Nc2ncncc2-c2cc(Nc3ccc(N4CCN(CC)CC4)cn3)ncn2)c1Cl [Compound 42, 2,4-Dichloro-N-ethyl-3-{6-[5-(4-ethyl-piperazin-1-yl)-pyridin-2-ylamino]-[4,5′]bipyrimidinyl-4′-ylamino}-5-methoxy-benzamide] | < 100
CCN1CCN(c2ccc(Nc3cc(-c4cncnc4Nc4c(F)c(OC)cc(OC)c4Cl)ncn3)nc2)CC1 [Compound 43, N4′-(2-Chloro-6-fluoro-3,5-dimethoxy-phenyl)-N6-[5-(4-ethyl-piperazin-1-yl)-pyridin-2-yl]-[4,5′]bipyrimidinyl-6,4′-diamine] | < 100
COc1cc(OC)c(Cl)c(Nc2ncncc2-c2cc(Nc3ccc(CN4CCOCC4)cn3)ncn2)c1F [Compound 44, N4′-(2-Chloro-6-fluoro-3,5-dimethoxy-phenyl)-N6-(5-morpholin-4-ylmethyl-pyridin-2-yl)-[4,5′]bipyrimidinyl-6,4′-diamine] | < 100
CCN1CCN(Cc2ccc(Nc3cc(-c4cncnc4Nc4c(F)c(OC)cc(OC)c4Cl)ncn3)nc2)CC1 [Compound 45, N4′-(2-Chloro-6-fluoro-3,5-dimethoxy-phenyl)-N6-[5-(4-ethyl-piperazin-1-ylmethyl)-pyridin-2-yl]-[4,5′]bipyrimidinyl-6,4′-diamine] | < 100
COc1cc(OC)c(Cl)c(Nc2ncncc2-c2cc(Nc3cc(CN4CCOCC4)ccn3)ncn2)c1F [Compound 46, N4′-(2-Chloro-6-fluoro-3,5-dimethoxy-phenyl)-N6-(4-morpholin-4-ylmethyl-pyridin-2-yl)-[4,5′]bipyrimidinyl-6,4′-diamine] | < 100
CCN1CCN(c2ccc(Nc3cc(-c4cncnc4Nc4c(Cl)c(OC)cc(OC)c4Br)ncn3)nc2)CC1 [Compound 47, N4′-(2-Bromo-6-chloro-3,5-dimethoxy-phenyl)-N6-[5-(4-ethyl-piperazin-1-yl)-pyridin-2-yl]-[4,5′]bipyrimidinyl-6,4′-diamine] | < 100
CCN1CCN(c2ccc(Nc3cc(-c4cncnc4Nc4c(C)c(OC)cc(OC)c4Cl)ncn3)nc2)CC1 [Compound 48, N4′-(2-Chloro-3,5-di-methoxy-6-methyl-phenyl)-N6-[5-(4-ethyl-piperazin-1-yl)-pyridin-2-yl]-[4,5′]bipyrimidinyl-6,4′-diamine] | < 100
COc1cc(OC)c(Br)c(Nc2ncncc2-c2cc(Nc3ccc(CN4CCOCC4)cn3)ncn2)c1Cl [Compound 49, N4′-(2-Bromo-6-chloro-3,5-dimethoxy-phenyl)-N6-(5-morpholin-4-ylmethyl-pyridin-2-yl)-[4,5′]bipyrimidinyl-6,4′-diamine] | < 100
CCN1CCN(Cc2ccc(Nc3cc(-c4cncnc4Nc4c(Cl)c(OC)cc(OC)c4Br)ncn3)nc2)CC1 [Compound 50, N4′-(2-Bromo-6-chloro-3,5-dimethoxy-phenyl)-N6-[5-(4-ethyl-piperazin-1-ylmethyl)-pyridin-2-yl]-[4,5′]bipyrimidinyl-6,4′-diamine] | < 100
COc1cc(OC)c(Br)c(Nc2ncncc2-c2cc(Nc3cc(CN4CCOCC4)ccn3)ncn2)c1Cl [Compound 51, N4′-(2-Bromo-6-chloro-3,5-dimethoxy-phenyl)-N6-(4-morpholin-4-ylmethyl-pyridin-2-yl)-[4,5′]bipyrimidinyl-6,4′-diamine] | < 100
